Source: ChEMBL document CHEMBL6153025, “Multidrug-resistant bacteria quorum-sensing inhibitors: A particular focus on Pseudomonasaeruginosa” (Eur J Med Chem, 2025)
≈ marks a conversion by molar mass, not a printed value. Values belong to the molecule of their own block, whether it stands above or below them.

How the values were obtained:
[1] = tested on: Pseudomonas aeruginosa; test: Antibiofilm activity against Pseudomonas aeruginosa ATCC 27853 assessed as reduction in biofilm formation at 10 uM relative to control; format: functional; parameters: scale not given: the % may be the effect or the level left
[2] = tested on: Pseudomonas aeruginosa; test: Downregulation of lasB mRNA expression in Pseudomonas aeruginosa PAO1 at 160 ug/ml incubated for 6 hrs by RT-qPCR analysis relative to control; format: functional; details: dose 160 µg/ml
[3] = tested on: Pseudomonas aeruginosa; test: Downregulation of rhlI mRNA expression in Pseudomonas aeruginosa PAO1 at 160 ug/ml incubated for 6 hrs by RT-qPCR analysis relative to control; format: functional; details: dose 160 µg/ml
[4] = tested on: Pseudomonas aeruginosa; test: Antibiofilm activity against Pseudomonas aeruginosa PAO1 assessed as inhibition of biofilm formation incubated for 24 hrs by crystal violet staining based assay; format: functional, organism-based; details: PAO1, 24 h
[5] = tested on: Pseudomonas aeruginosa; test: Antibacterial activity against Pseudomonas aeruginosa PAO1 assessed as bacterial growth inhibition after 24 hrs by liquid microdilution method; format: functional
[6] = tested on: Pseudomonas aeruginosa; test: Downregulation of lasR mRNA expression in Pseudomonas aeruginosa PAO1 at 16 ug/ml relative to control; format: functional; details: dose 16 µg/ml
[7] = tested on: Pseudomonas aeruginosa; test: Downregulation of lasA mRNA expression in Pseudomonas aeruginosa PAO1 at 160 ug/ml incubated for 6 hrs by RT-qPCR analysis relative to control; format: functional; details: dose 160 µg/ml
[8] = tested on: Pseudomonas aeruginosa; test: Downregulation of rhlR mRNA expression in Pseudomonas aeruginosa PAO1 at 160 ug/ml incubated for 6 hrs by RT-qPCR analysis relative to control; format: functional; details: dose 160 µg/ml
[9] = tested on: Pseudomonas aeruginosa; test: Downregulation of lasI mRNA expression in Pseudomonas aeruginosa PAO1 at 16 ug/ml relative to control; format: functional; details: dose 16 µg/ml
[10] = tested on: Pseudomonas aeruginosa; test: Antivirulence activity against Pseudomonas aeruginosa PAO1 assessed as inhibition of pyocyanin production at 16 ug/ml relative to control; format: functional; parameters: scale not given: the % may be the effect or the level left; details: dose 16 µg/ml
[11] = tested on: Pseudomonas aeruginosa; test: Antibiofilm activity against Pseudomonas aeruginosa ATCC 27853 assessed as inhibition of biofilm formation at 8 microg/ml incubated for 24 hrs by crystal violet staining based analysis relative to control; format: functional; parameters: scale not given: the % may be the effect or the level left; details: dose 8 µg/ml
[12] = tested on: Pseudomonas aeruginosa; test: Anti-virulence effect in Pseudomonas aeruginosa PAO1 assessed as inhibition of rhamnolipid production at 10 uM relative to control; format: functional; parameters: scale not given: the % may be the effect or the level left
[13] = tested on: Pseudomonas aeruginosa; test: Antibiofilm activity against Pseudomonas aeruginosa PA14 assessed as reduction in biofilm formation; format: functional
[14] = tested on: Pseudomonas aeruginosa; test: Antibiofilm activity against Pseudomonas aeruginosa PAO1 assessed as inhibition of biofilm formation at 1 to 100 uM incubated for 24 hrs by crystal violet staining based assay relative to control; format: functional; parameters: scale not given: the % may be the effect or the level left; details: dose 1-100 µM
[15] = tested on: Pseudomonas aeruginosa; test: Antibiofilm activity against Pseudomonas aeruginosa ATCC 15442 assessed as inhibition of biofilm formation at 16 ug/ml relative to control; format: functional; parameters: scale not given: the % may be the effect or the level left; details: dose 16 µg/ml
[16] = tested on: Pseudomonas aeruginosa; test: Antibacterial activity against Pseudomonas aeruginosa ATCC 15442 assessed as reduction in bacterial cell growth incubated for 18 hrs by two fold serial microdilution method; format: functional
[17] = tested on: Pseudomonas aeruginosa; test: Antibacterial activity against Pseudomonas aeruginosa ATCC 27853; format: functional, organism-based
[18] = tested on: Pseudomonas aeruginosa; test: Antibacterial activity against Pseudomonas aeruginosa ATCC 27853 assessed as bacterial growth inhibition by agar diffusion assay; format: functional
[19] = tested on: Pseudomonas aeruginosa; test: Anti-virulence activity in Pseudomonas aeruginosa PAO1 assessed as reduction in pyoverdine production at 160 ug/ml by absorbance based analysis relative to control; format: functional; parameters: scale not given: the % may be the effect or the level left; details: dose 160 µg/ml
[20] = tested on: Pseudomonas aeruginosa; test: Antivirulence activity in Pseudomonas aeruginosa PAO1 assessed as reduction in pyocyanin production at 10 uM incubated for 24 hrs by absorbance based analysis relative to control; format: functional; parameters: scale not given: the % may be the effect or the level left
[21] = tested on: Pseudomonas aeruginosa; test: Antimicrobial activity against Pseudomonas aeruginosa PAO1 assessed as inhibition of bacterial growth measured for 18 hrs by CLSI-based broth microdilution method; format: functional
[22] = tested on: Pseudomonas aeruginosa; test: Antivirulence activity against Pseudomonas aeruginosa PAO1 assessed as inhibition of rhamnolipid production at 16 ug/ml relative to control; format: functional; parameters: scale not given: the % may be the effect or the level left; details: dose 16 µg/ml
[23] = Inhibition of quorum sensing system in Pseudomonas aeruginosa PAO1 expressing lasB-gfp
[24] = tested on: Pseudomonas aeruginosa; test: Anti-virulence activity against Pseudomonas aeruginosa PAO1-L assessed as reduction in pyocyanin production at 10 uM incubated for 24 hrs by absorbance based analysis relative to control; format: functional; parameters: scale not given: the % may be the effect or the level left
[25] = tested on: Pseudomonas aeruginosa; test: Antibacterial activity against Pseudomonas aeruginosa PAO1-L; format: functional, organism-based
[26] = Inhibition of quorum sensing system in Pseudomonas aeruginosa PAO1 expressing lasB-gfp assessed as inhibition of lasB expression at 50 ug/ml incubated for 8 hrs by microplate reader based analysis relative to control; details: dose 50.0 µg/ml
[27] = tested on: Pseudomonas aeruginosa; test: Downregulation of rhlA mRNA level in Pseudomonas aeruginosa PAO1 at 10 uM by RT-qPCR analysis; format: functional
[28] = Inhibition of quorum sensing system in Pseudomonas aeruginosa PAO1 expressing lasB-gfp at 16 uM relative to control
[29] = tested on: Pseudomonas aeruginosa; test: Antibiofilm activity against Pseudomonas aeruginosa PAO1 assessed as reduction in biofilm formation at 16 ug/ml incubated for 2 to 4 hrs by crystal violet staining based analysis relative to control; format: functional; parameters: scale not given: the % may be the effect or the level left; details: dose 16 µg/ml; time 2-4 hrs
[30] = tested on: Pseudomonas aeruginosa; test: Antivirulence activity against Pseudomonas aeruginosa PAO1 assessed as inhibition of pyocyanin production at 25 ug/ml incubated for 16 hrs under agitation by photometric analysis relative to control; format: functional; parameters: scale not given: the % may be the effect or the level left; details: dose 25 µg/ml
[31] = tested on: Pseudomonas aeruginosa; test: Downregulation of pqsA mRNA expression in Pseudomonas aeruginosa PAO1; format: functional
[32] = tested on: Pseudomonas aeruginosa; test: Antibiofilm activity against Pseudomonas aeruginosa PAO1 assessed as inhibition of biofilm formation at 16 ug/ml incubated for 24 hrs by crystal violet staining based assay relative to control; format: functional; parameters: scale not given: the % may be the effect or the level left; details: dose 16 µg/ml
[33] = tested on: Pseudomonas aeruginosa; test: Downregulation of pqsR mRNA expression in Pseudomonas aeruginosa PAO1; format: functional
[34] = tested on: Pseudomonas aeruginosa; test: Antibacterial activity against Pseudomonas aeruginosa PAO1 by broth microdilution method; format: functional
[35] = tested on: Pseudomonas aeruginosa; test: Antivirulence activity in Pseudomonas aeruginosa PAO1 assessed as reduction in elastase production at 10 uM incubated for 24 hrs by elastin-congo red dye based absorbance assay relative to control; format: functional; parameters: scale not given: the % may be the effect or the level left
[36] = tested on: Pseudomonas aeruginosa; test: Antibacterial activity against Pseudomonas aeruginosa PAO1 assessed as reduction in bacterial growth; format: functional
[37] = tested on: Pseudomonas aeruginosa; test: Antivirulence activity against Pseudomonas aeruginosa PAO1 assessed as reduction in pyocyanin production at 20 ug/ml relative to control; format: functional; parameters: scale not given: the % may be the effect or the level left; details: dose 20 µg/ml
[38] = Inhibition of quorum sensing system in Pseudomonas aeruginosa PAO1-rhlA-gfp assessed as inhibition of rhlA expression at 50 ug/ml incubated for 8 hrs by microplate reader based analysis relative to control; details: dose 50.0 µg/ml
[39] = Inhibition of quorum sensing system in Pseudomonas aeruginosa PAO1 expressing lasI-gfp assessed as inhibition of lasI expression at 50 ug/ml incubated for 8 hrs under shaking condition by microplate reader based analysis relative to control; details: dose 50.0 µg/ml
[40] = tested on: Pseudomonas aeruginosa; test: Antibiofilm activity against Pseudomonas aeruginosa PAO1 assessed as inhibition of biofilm formation at 16 microg/ml incubated for 20 hrs by crystal violet staining based analysis; format: functional; parameters: scale not given: the % may be the effect or the level left; details: dose 16 µg/ml

SMILES: C=CCSSc1nc2ccccc2c(=O)[nH]1
- Activity [1]: 46%

SMILES: O=C/C=C/c1ccccc1
- Activity [2]: 28%
- Activity [3]: 70%
- IC50 [4]: 2.29 µM
- MIC [5]: 11.3 µM (≈ 1.5 µg/mL)
- Activity [6]: 98.56%
- Activity [7]: 65%
- Activity [8]: 99%
- Activity [9]: 86%

SMILES: c1cc2c(cc1O[C@H]1OC[C@H]3[C@@H]1CO[C@@H]3c1ccc3c(c1)OCO3)OCO2 [SESAMOLIN]
- Activity [10]: 79%
- Activity [11]: 97%
- Activity [12]: 42%
- Activity [7]: 53.95%
- MIC [13]: 150 µg/mL (≈ 405 µM)

SMILES: Oc1ccc2c(c1)OC[C@](O)(Cc1ccc(O)c(O)c1)[C@H]2O [SAPPANOL]
- Activity [14]: 54.26%

- MIC [16]: > 50 µM
SMILES: O=c1c2c(Cl)cccc2ncn1Cc1ccc(NCc2ccco2)cc1
- Activity [15]: 26.7%

- IC50 [17]: 115 µg/mL (≈ 335 µM)
- MIC [18]: > 512 µg/mL
SMILES: O=C(CSc1nc2ccccc2s1)c1ccc2c(c1)OCCO2

- MIC [16]: > 50 µM
SMILES: Cc1nc2cccc(Br)c2c(=O)n1/N=C/C=C/c1ccccc1
- Activity [15]: 58%

SMILES: CCCCCCn1ccnc1
- Activity [19]: 60%
- Activity [20]: 97%

SMILES: COc1ccc(-c2cc(=O)c3c(O)cc(O)cc3o2)cc1 [ACACETIN]
- Activity [10]: 53%
- MIC [21]: 0.48 µg/mL (≈ 1.69 µM)
- Activity [22]: 67%

SMILES: N#CCc1ccc(OC[C@H](O)Cn2cnc3ccc(Cl)cc3c2=O)cc1
- IC50 [23]: 1 µM
- Activity [1]: 52%
- Activity [24]: 80%
- IC50 [25]: 4.3 µM

- inhibition [26]: 67.8%
SMILES: CC1=C(/C=C/C(C)=C/C=C/C(C)=C/C=C/C=C(C)/C=C/C=C(C)/C=C/C2=C(C)C[C@@H](O)CC2(C)C)C(C)(C)C[C@H](O)C1 [ZEAXANTHIN]
- Activity [27]: 43%

- inhibition [28]: 41%
SMILES: CCCCC/C=C\C/C=C\CCCCCCCC(=O)O

SMILES: CCCCCCCCn1ccnc1
- IC50 [4]: 0.74 µM
- Activity [19]: 88%
- Activity [20]: 97.37%

SMILES: C=CCc1ccc(O)c(OC)c1 [EUGENOL]
- Activity [6]: 51%
- Activity [8]: 65%
- Activity [29]: 50%
- Activity [9]: 52%

SMILES: O=C(O)c1ccccc1O [SALICYLIC ACID]
- Activity [2]: 22%
- Activity [3]: 82%
- IC50 [4]: 3.62 µM
- MIC [5]: 11.3 µM (≈ 1.57 µg/mL)
- Activity [6]: 78%
- Activity [7]: 31%
- Activity [8]: 70%
- Activity [30]: 32%
- Activity [9]: 60%

- IC50 [17]: 182 µg/mL (≈ 578 µM)
- MIC [18]: > 512 µg/mL
SMILES: COc1cccc(C(=O)CSc2nc3ccccc3s2)c1

SMILES: Oc1ccc([C@H]2Oc3cc(O[C@H]4OC[C@@H](O)[C@@H](O)[C@@H]4O)cc(O)c3C[C@H]2O)cc1O
- Activity [14]: 66%

SMILES: COc1ccc([C@H](CNC(=O)Nc2ccccc2F)c2c[nH]c3ccccc23)cc1OC
- Activity [10]: 74.27%
- Activity [31]: 90%
- Activity [32]: 67.32%
- Activity [33]: 90%
- MIC [34]: 500 µM (≈ 217 µg/mL)
- Activity [22]: 66.4%

SMILES: CCCCCCCCSSc1nc2ccccc2c(=O)[nH]1
- Activity [1]: 46%

SMILES: Cc1nc2cccc(Br)c2c(=O)n1/N=C/c1ccc(O)cc1
- Activity [10]: 99.5%
- Activity [15]: 25%
- MIC [16]: > 50 µM

SMILES: O=C(CCc1ccc(Br)cc1)NC1CCOC1=O (stereo unspecified)
- Activity [35]: 44%
- MIC [36]: 10 µM (≈ 3.12 µg/mL)
- Activity [37]: 19%
- inhibition [38]: 80%
- inhibition [39]: 87%
- Activity [40]: 48%

- IC50 [17]: 45.5 µg/mL (≈ 132 µM)
- MIC [18]: > 512 µg/mL
SMILES: COc1ccc(C(=O)CSc2nc3ccccc3s2)c(OC)c1

- MIC [34]: 500 µM (≈ 214 µg/mL)
SMILES: Cc1nc2ccccc2nc1CSc1nc2ccccc2c(=O)n1-c1ccc(F)cc1
- Activity [31]: 90%
- Activity [32]: 46.37%
- Activity [33]: 90%

- inhibition [26]: 54%
SMILES: COc1cc(C)c(C(=O)Oc2cc(C)c(C(=O)O)c(O)c2)c(O)c1 [EVERNIC ACID]
- Activity [27]: 50%

SMILES: Cc1ccc(CCC(=O)NC2CCOC2=O)cc1 (stereo unspecified)
- Activity [35]: 52%
- MIC [36]: 10 µM (≈ 2.47 µg/mL)
- Activity [37]: 66%
- inhibition [38]: 91%
- inhibition [39]: 82%
- Activity [40]: 52%

SMILES: c1cc2c(cc1[C@H]1OC[C@H]3[C@@H]1CO[C@@H]3c1ccc3c(c1)OCO3)OCO2 [SESAMIN]
- Activity [10]: 87%
- Activity [11]: 92%
- Activity [12]: 51.31%
- MIC [13]: 75 µg/mL (≈ 212 µM)
